According to US20240196946A1, “METABOLICALLY MODIFIED VANILLA BEANS AND METHODS FOR PRODUCING SAME” (VANILLA TECHNOLOGIES LTD., priority 2021, published 2024):

Experiments:
vanilla beans = experiment: Vanillin content analysis by spectrophotometry of treated, cured vanilla beans; set-up: species or system Vanilla planifolia; conditions: relative to water control; FIG. 1; concentrations as in Table 1
Method: Target chemical compounds (set forth in table 1 below) were dissolved in water and pH adjusted to pH-7. Green beans cut into 1 cm pieces were placed in a 50 ml tube or intact beans placed in a bucket. A 10 ml solution containing one of the compounds indicated in Table 1 dissolved in water and 0.1% of each of the four surfactants tween 20, tween 80, span 20, and span 80 was added per each bean. The beans were incubated with the solution for 0.5-36 hours (e.g. overnight) at room temperature. The solution was the filtered out, the beans washed, and placed in a drying chamber with controlled temperature and humidity conditions to provide killing and curing as known in the art. The beans were weighted daily and at a 25-30% of their original weight, subjected to vanillin content analysis by spectrophotometry, as well as to a flavor test by a sensory panel.

Vanilla planifolia beans = experiment: GC-MS headspace (SPME) analysis of treated vanilla beans (Example 2); conditions: for Phenylethyl Alcohol and 3-Phenyl-2-propenoic acid methyl ester / compounds giving a vinegar anisic and creamy flavor (acetic acid, creosol and 2,3-Butanediol): FIG. 3E, glutathione results not shown; for vanillin levels: GC-MS headspace vs control, FIG. 3A-3E; for constituents delivering vinegar anisic and floral flavors (acetic acid, creosol and acetoin): 3C
Text: The treated vanilla beans were further analyzed by Gas Chromatography-Mass Spectrometry (GC-MS) in headspace mode with solid phase micro extraction (SPME) fiber. Compound identification was done by retention index and mass spectra. Compound flavor was obtained by searching a compound name in the following databases: https://pubchem.ncbi.nlm.nih.gov/ and […].com/.

Row | Molecule | vanillin content (abundance of vanillin) (vanilla beans) | Phenylethyl Alcohol and 3-Phenyl-2-propenoic acid methyl ester (Vanilla planifolia beans) | compounds giving a vinegar anisic and creamy flavor (acetic acid, creosol and 2,3-Butanediol) (Vanilla planifolia beans) | vanillin levels (Vanilla planifolia beans) | acetic acid, 2,3-Butanediol and acetoin (Vanilla planifolia beans; FIG. 3D) | level of compounds giving anisic and floral flavors (creosol and benzeneacetaldehyde) (Vanilla planifolia beans; FIG. 3D) | levels of constituents resulting in a nutty flavor (3-hydroxy-Benzaldehyde) (Vanilla planifolia beans; FIG. 3B) | constituents delivering vinegar anisic and floral flavors (acetic acid, creosol and acetoin) (Vanilla planifolia beans; FIG. 3B) | levels of constituents delivering a nutty coffee flavor (3-hydroxy-Benzaldehyde and 2-methyl-Butanal) (Vanilla planifolia beans; FIG. 3C)
1 | N[C@@H](Cc1ccccc1)C(=O)O [L-Phenylalanine] | reduced vanillin content | induced the formation | reduced abundance | increase |  |  |  |  | 
2 | N[C@@H](CCC(=O)N[C@@H](CS)C(=O)NCC(=O)O)C(=O)O [L- glutathione] | reduced vanillin content | induced the formation | reduced abundance | increase |  |  |  |  | 
3 | CC(=O)C(=O)O [Pyruvic acid] |  |  |  | increase | formation | decreasing |  |  | 
4 | O=C(O)c1ccccc1O [Salicylic acid] | large increase |  |  | marked increase |  |  | increased | decrease | 
5 | Chitosan |  |  |  | milder increase |  |  |  | decrease | increased
